Source: US20230257383A1, “COMPOUND SERVING AS BTK INHIBITOR, PREPARATION METHOD THEREFOR, AND USE THEREOF” (CHENGDU HYPERWAY PHARMACEUTICALS CO., LTD., priority 2020, published 2023)
Where two headings read alike, the source gives them in different places.

Columns and labels:
[1] = Liver microsome metabolic stability test (rat); type: in vitro ADME; conditions: liver microsomes, read-out: CLint (μL/min/mg) Rat
Method: (§1) 1: To the sample wells of T0, T5, T10, T20, T30, T60 and NCF60, 10 μL of the test or reference working solution and 80 μL of microsome working solution (hepatic microsome with a protein concentration of 0.5 mg/mL) were added, and to Blank60 well, only the microsome working solution was added. Then samples of the Blank60, T5, T10, T20, T30 and T60 other than TO and NCF60 were placed in a 37° C. water bath and pre-incubated for about 10 min.
(§2) 2: To the TO sample well, 300 μL of stop solution (containing 200 ng/mL tolbutamide and 200 ng/mL labetalol in acetonitrile solution) was added first, followed by 10 μL of NADPH regeneration system working solution.
(§3) 3: After the pre-incubation of Blank60, T5, T10, T20, T30 and T60 incubation plates, 10 μL of NADPH regeneration system working solution was added to each sample well to start the reaction, and 10 μL of 100 mM potassium phosphate buffer was added to the NCF60 sample well.
(§4) 4: After incubation for an appropriate time (such as 5, 10, 20, 30 and 60 min), to each test sample well and control well of the Blank60, T5, T10, T20, T30, T60 and NCF60 plates, 300 μL of stop solution was added to terminate the reaction.
(§5) 5: All sample plates were shaken to mix well and centrifuged at 4000 rpm for 20 min, and 100 μL of the supernatant of the test sample or control sample was taken and diluted with 300 μL of pure water for LC-MS/MS analysis.
(§6) 6: Data analysis: T1/2 and CLint(mic) (μL/min/mg) values were calculated according to the first-order elimination kinetics. The first-order elimination kinetics equation was: […]

[2] = Liver microsome metabolic stability test (human); type: in vitro ADME; conditions: liver microsomes, read-out: CLint (μL/min/mg) Human
Method: as §1, §2, §3, §4, §5, §6

[3] = test system: TMD8 mouse subcutaneous xenograft tumor; test: TMD8 pharmacodynamic model test; type: in vivo; conditions: same dose of 10 mg/kg, FIG. 1
Method: Test Example 7: TNMD8 Pharmacodynamic Model Test
Human diffuse large B-cell lymphoma TMD8 cells were monolayer-cultured in vitro in RPNHI1640 medium with […], 100 U/mL penicillin and 100 μg/mL streptomycin, in a 37° C., […] incubator. Routine digestion with trypsin-EDTA was performed twice a week for passaging. When the cell density was […] and the number reached the requirement, cells were harvested, counted and inoculated. 0.2 ml (1×10^7 cells) of TMVD8 cells (added with matrigel at a volume ratio of 1:1) were subcutaneously inoculated on the right back of each mouse. The mice were administered in groups when the average tumor volume reached about 137 mm^3. Tumor diameters were measured twice a week with vernier calipers. The tumor volume was calculated by the formula V=0.5 a×b^2, where a and b represent the long and short diameters of the tumor, respectively.

TMD8 cell proliferation = test: In vitro cell proliferation inhibitory activity test (CTG), TMD8; type: cell-based; conditions: Homo sapiens, TMD8, 72 h, TMD8 cells
Method: (§7) Test Example 4: In Vitro Cell Proliferation Inhibitory Activity Test
(§8) Cells were cultured in 1640 medium, added with 10% inactivated FBS and 1% double antibiotics, and cultured at 37° C. and 5% CO2.
(§9) (1) Cells were routinely cultured until the cell density was 80%-90%, and the cells were harvested when their number reached the requirement.
(§10) (2) Cells were resuspended with corresponding culture medium, counted, and prepared into cell suspension at appropriate density.
(§11) (3) The cell suspension was added to a 96-well plate, 100 μL per well.
(§12) (4) Cells were cultured overnight in a 37° C., 5% CO2 incubator.
(§13) (1) The compounds to be tested were diluted with DMSO to make a stock solution with a final concentration of 20 mM for later use.
(§14) (2) The stock solution was diluted 10 times from 20 mM to 2 mM with DMSO, and then diluted 3 times from 2 mM to 9 concentrations.
(§15) (3) The blank control wells were cells plus 0.5% DMSO, as high-reading control wells.
(§16) (4) Wells with no cells and only medium were used as low-reading control wells.
(§17) 4: Cell treatment with compound
(§18) (1) 24 h after the cells were plated, the compounds acted alone, and 99 μL of growth medium was added to each well, followed by 1 μL of the compound prepared in step 3. The plate was shaken gently to mix uniformly, and then placed in a 37° C., 5% CO2 incubator.
(§19) (2) The cell plate was placed in an incubator for 72 h.
(§20) 5: Detection by CTG method
(§21) (1) The cell plate to be tested was placed at room temperature for 30 min, and 100 μL of medium was discarded from each well.
(§22) (2) 100 μL of CTG reagent (CelltiterGlo kit) was added to each well, placed on a fast shaker for 2 min, and stood at room temperature in the dark for 30 min.
(§23) (3) The chemiluminescent signal value was read with the Envision instrument.
(§24) IC50 was calculated by using GraphPad Prism 8 software. The IC50 (half inhibitory concentration) of the compound was derived using the following nonlinear fitting formula, and the results are shown in the following table:
(§25) Y=Bottom+(Top−Bottom)/(1+10^((Log IC50−X)×HillSlope))
(§26) X: log value of compound concentration, Y: inhibition rate (% inhibition)
(§27) Inhibition rate (% inhibition)=(reading of high-reading control well-reading of compound well)/(reading of high-reading control well-reading of low-reading control well)×100

DOHH2 cell proliferation = test: In vitro cell proliferation inhibitory activity test (CTG), DOHH2; type: cell-based; conditions: Homo sapiens, DOHH-2
Method: as §7, §8, §9, §10, §11, §12, §13, §14, §15, §16, §17, §18, §19, §20, §21, §22, §23, §24, §25, §26, §27

[4] = Pharmacokinetic test, oral, SD rats; type: in vivo; conditions: oral 10 mg/kg
Method: Each test compound was administered orally (10 mg/kg, 3 rats in each group) to SD rats for pharmacokinetic study. […] Animals were fasted overnight before oral administration, and fed again after 4 h of administration. […] At each collection time point, 3 whole blood samples were collected at a the collection volume of about 0.2-0.3 mL. […] The collected plasma was stored at −20° C. before analysis. 20 μL of plasma sample was added into a 1.6 mL 96-well deep-well plate, added with 200 μL of working internal standard solution (the same volume of vehicle was added to the blank instead of internal standard), vortexed for 1 min, and centrifuged at 5800 rpm for 10 min. 100 μL of the supernatant was added to a 96-well injection plate for LC-MS/MS analysis.

HER2 kinase = HER2 kinase (Homo sapiens, UniProt P04626); test: HER2 kinase activity test (HTRF); type: biochemical
Chain of HER2 kinase (P04626 23-1255): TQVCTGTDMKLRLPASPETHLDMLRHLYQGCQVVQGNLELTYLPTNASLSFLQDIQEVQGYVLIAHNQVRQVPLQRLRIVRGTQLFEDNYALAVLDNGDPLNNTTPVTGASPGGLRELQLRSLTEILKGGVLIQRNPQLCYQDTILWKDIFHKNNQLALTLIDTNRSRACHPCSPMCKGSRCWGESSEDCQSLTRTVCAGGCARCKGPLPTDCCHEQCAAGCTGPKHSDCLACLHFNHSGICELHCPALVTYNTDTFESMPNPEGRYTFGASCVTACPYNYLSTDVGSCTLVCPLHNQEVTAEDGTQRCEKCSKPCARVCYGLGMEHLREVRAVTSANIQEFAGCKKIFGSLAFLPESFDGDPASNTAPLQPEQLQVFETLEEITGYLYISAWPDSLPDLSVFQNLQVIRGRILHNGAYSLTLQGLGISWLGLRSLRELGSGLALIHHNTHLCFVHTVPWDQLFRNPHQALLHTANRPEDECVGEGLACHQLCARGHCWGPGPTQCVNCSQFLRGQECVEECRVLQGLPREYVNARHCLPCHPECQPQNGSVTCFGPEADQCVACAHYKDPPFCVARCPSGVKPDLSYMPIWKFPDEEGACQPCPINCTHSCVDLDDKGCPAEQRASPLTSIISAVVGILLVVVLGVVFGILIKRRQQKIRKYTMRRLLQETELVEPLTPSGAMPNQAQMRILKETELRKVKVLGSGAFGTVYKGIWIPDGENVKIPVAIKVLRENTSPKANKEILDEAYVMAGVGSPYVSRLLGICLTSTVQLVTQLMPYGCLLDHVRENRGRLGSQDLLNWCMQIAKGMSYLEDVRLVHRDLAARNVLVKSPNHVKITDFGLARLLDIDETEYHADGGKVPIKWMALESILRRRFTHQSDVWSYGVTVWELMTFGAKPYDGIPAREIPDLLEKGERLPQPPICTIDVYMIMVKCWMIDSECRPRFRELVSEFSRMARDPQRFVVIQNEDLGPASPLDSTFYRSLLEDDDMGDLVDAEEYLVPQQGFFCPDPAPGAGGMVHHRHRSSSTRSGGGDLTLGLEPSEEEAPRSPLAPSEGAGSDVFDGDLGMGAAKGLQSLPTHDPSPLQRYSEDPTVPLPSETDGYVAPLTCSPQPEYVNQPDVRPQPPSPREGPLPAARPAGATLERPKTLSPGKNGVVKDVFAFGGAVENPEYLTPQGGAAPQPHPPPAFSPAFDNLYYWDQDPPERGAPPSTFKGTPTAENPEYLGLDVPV
Method: Test Example 5: HER2 Kinase Activity Test
1. Her2 Kinase test steps
2) 100 nl of the diluted compound working solution was transferred into each well of a reaction plate (784075, Greiner) by an Echo 550 liquid hander. The reaction plate was sealed with a sealing film and centrifuged at 1000 g for 1 min.
3) 1 ng/μL Her2 kinase solution was prepared with 1× kinase reaction buffer.
4) 5 μL of the kinase solution prepared above was added to each well of the reaction plate. The plate was sealed with a sealing film, centrifuged at 1000 g for 1 min, and placed at room temperature for 10 min.
5) A mixture of 2× kinase substrate and ATP was prepared by using 1× kinase reaction buffer, and the 2× Her2 kinase substrate was 2 μM TK-substrate-biotin and 4 μM ATP
6) 5 μL of the mixture of 2× TK-substrate-biotin and ATP was added to the reaction plate, centrifuged at 1000 g for 30 seconds to start the reaction.
7) Her2 kinase test was performed at room temperature for 50 min of reaction.
9) 10 μL of the mixture of Sa-XL 665 and TK-antibody-Cryptate was added to each well, centrifuged at 1000 g for 30 seconds, and reacted at room temperature for 1 h.
10) The fluorescence signals at 615 nm (Cryptate) and 665 nm (XL665) were read by Envision 2104.
1) The percentage inhibition was calculated as follows: […]
Ratiopositive control: average value of Ratio 665/615 nm of all positive control wells in the plate.
Rationegative control: average value of Ratio 665/615 nm of all negative control wells in the plate.
2) Calculation of IC50 and fitting of dose-effect curve of compound:
The IC50 of the compound was derived using the following nonlinear fitting formula with GraphPad 6.0.
Y=Bottom+(Top−Bottom)/(1+10^((Log IC50−X)×HillSlope)).
X: log value of compound concentration; Y: percentage inhibition of compound

BT474 cell proliferation = test: In vitro cell proliferation inhibitory activity test (CTG), BT474; type: cell-based; conditions: Homo sapiens, BT-474, BT474 cell proliferation
Method: as §7, §8, §9, §10, §11, §12, §13, §14, §15, §16, §17, §18, §19, §20, §21, §22, §23, §24, §25, §26, §27

[5] = test system: NCI-N87 cell proliferation; test: In vitro cell proliferation inhibitory activity test (CTG), NCI-N87; type: cell-based; conditions: Homo sapiens
Method: as §7, §8, §9, §10, §11, §12, §13, §14, §15, §16, §17, §18, §19, §20, §21, §22, §23, §24, §25, §26, §27

[6] = Blood-brain barrier permeability test, oral, SD rats; type: in vivo; conditions: rat, oral 10 mg/kg single dose; for concentration at 1 h / Kp at 1 h: time point 1 h; for concentration at 4 h / Kp at 4 h: time point 4 h
Method: Test Example 6: Blood-Brain Barrier Permeability Test
Each test compound was administered orally at a single dose of 10 mg/kg to SD rats for pharmacokinetic study. Each group included 9 rats. The test compound was dissolved in 5% DMSO+10% solutol+85% saline, vortexed for 1-2 min, and ultrasonicated for 5-10 min to prepare into a colorless, transparent and clear administration solution. Animals were fasted overnight before administration. 1 h, 2 h, and 4 h after administration, three SD rats were selected from each group to take about 0.2-0.3 mL of blood through their orbit. The blood sample was placed on ice once collected, and centrifuged to separate the plasma within 15 min (centrifugation conditions: 8000 rpm, 1 min, room temperature). The collected plasma was stored at −20° C. before analysis. Immediately after blood collection, the cerebrospinal fluid and brain tissue were collected. The cerebrospinal fluid was draw out by dural puncture with a micro-sampler syringe under direct vision. Namely, about 100 μl of cerebrospinal fluid was collected with a 100 μl micro sample syringe from the rat that was anesthetized by chloral hydrate, with the head-fixed, the back hair-cut off, a transverse incision (2 cm) made at the line connecting the roots of the two ears, and the muscle layer of the neck and skull base bluntly scraped to expose the foramen magnum. The cerebrospinal fluid was stored at −20° C. before analysis. The rat then was sacrificed immediately, with its head cut off. The dissected brain tissue, with the surface capillaries peeled off, was weighed, added with 3 times the amount of cold saline, homogenized by a homogenizer for 1 min, and stored at −20° C. before analysis. 20 μL of plasma sample and brain homogenate sample was respectively added into 200 μL of working internal standard solution (the same volume of vehicle was added to the blank instead of internal standard), vortexed for 1 min, and centrifuged at 13500 rpm for 10 min. 100 μL of the supernatant was taken and analyzed by LC-MS/MS. 20 μL of the cerebrospinal fluid was added into 60 μL of working internal standard solution (the same volume of vehicle, instead of internal standard, was added to the blank), vortexed for 1 min, and centrifuged at 13500 rpm for 10 min. 50 μL of the supernatant was taken and analyzed by LC-MS/MS.

[7] = brain, read-out: Drug concentration in brain tissue
[8] = brain/plasma, read-out: Brain tissue/plasma
[9] = cerebrospinal fluid, read-out: Drug concentration in cerebrospinal fluid
[10] = cerebrospinal fluid/plasma, read-out: Cerebrospinal fluid/plasma
[11] = plasma, read-out: Plasma drug concentration

Row | SMILES | microsomal CLint [1] | microsomal CLint [2] | inhibitory effect against the tumor compared with ARQ-531 and ibrutinib [3] | IC50 (TMD8 cell proliferation) | IC50 (HER2 kinase) | IC50 (BT474 cell proliferation) | IC50 [5] | also measured
1 | COc1cccc(Oc2ccc(-c3nc(C4CCC(CO)OC4)n4ccnc(N)c34)cc2)c1C#N (single isomer, unassigned) [Example 89-P1] | 15.7 µL/min/mg | < 9.6 µL/min/mg | significantly better inhibitory effect against the tumor than the clinical phase II drug ARQ-531 and the marketed drug ibrutinib | 4.3 nM | – | – | – | –
2 | Nc1nccn2c(C34CCC(CO)(CC3)OC4)nc(-c3ccc(C(=O)Nc4cc(C(F)(F)F)ccn4)cc3)c12 [Example 118] | 13.7 µL/min/mg | < 9.6 µL/min/mg | significantly better inhibitory effect against the tumor than the clinical phase II drug ARQ-531 and the marketed drug ibrutinib | 23.8 nM | – | – | – | IC50 (DOHH2 cell proliferation): 250 nM; Cl [4]: 0.8 mL/min/kg
3 | Nc1nccn2c(C34CCC(CO)(CC3)OC4)nc(-c3ccc(C(F)(F)c4cccc(F)c4F)cc3)c12 [Example 130] | – | – | – | – | 4.35 nM | 89.9 nM | 100 nM | –
4 | Nc1nccn2c(C34CCC(CO)(CC3)OC4)nc(-c3ccc(C(F)(F)c4cccc(F)c4Cl)cc3)c12 [Example 146] | – | – | – | – | 3.92 nM | 86.9 nM | 82 nM | concentration at 1 h [6, 7]: 296 ng/g; concentration at 4 h [6, 7]: 410 ng/g; Kp at 1 h [6, 8]: 0.78; Kp at 4 h [6, 8]: 1.1; concentration at 1 h [6, 9]: 27.4 ng/mL; concentration at 4 h [6, 9]: 34.3 ng/mL; Kp at 1 h [6, 10]: 0.072; Kp at 4 h [6, 10]: 0.092; concentration at 1 h [6, 11]: 380 ng/mL; concentration at 4 h [6, 11]: 373 ng/mL
